These molecules were tested against T1, human PGI2 receptors (hIP) (Homo sapiens, UniProt P43119) (assay: Method A: positive allosteric modulator activity, cAMP in CHO/hIP cells with 100 pM iloprost). Details: cAMP relative to 100 pM iloprost alone, test compound 5 uM.
T1 construct: expressed in transfected cells; host or cells: CHO-K1
Assay type: cell-based
Method: The positive allosteric modulator activity of a test compound was measured as a change in the amount of intracellular cyclic AMP (cAMP) in the presence of 100 pM of the IP agonist iloprost (manufactured by CAYMAN CHEMICAL), using CHO-K1 cells (CHO/hIP cells) in which human PGI2 receptors (hIP) are stably expressed.
An amount of 5 μL of a mixture (diluted in F-12 culture medium (manufactured by GIBCO) including 0.1% BSA) of iloprost dissolved in DMSO and a test compound dissolved in DMSO was dispensed in advance into a 384-well black microplate, and 5 μL of CHO/hIP cells suspended at a concentration of 1.6×10^6 cells/mL in F-12 culture medium including 0.1% BSA were added to the microplate. After 40 minutes of incubation at room temperature, the amount of cAMP was measured using a cAMP assay kit (cAMP HiRange, manufactured by Cisbio Bioassays). Specifically, 5 μL of a cAMP-d2 solution (including a cell lysate) from the kit were added and the reaction was stopped, then 5 μL of a fluorescence-labeled cAMP antibody solution from the kit was added and incubation was performed for 1 hour at room temperature, after which fluorescence was measured using a PHERAstar plate reader (manufactured by BMG) in HTRF (registered trademark) mode. The amount of cAMP in each well was calculated from a cAMP calibration curve obtained using a standard sample, and the activity of each test compound is noted below as a ratio T/C (%) based on the amount of cAMP for 100 pM of isoprost alone. All of the compounds included in this table were purchased from Asinex Corporation.

T1 sequence (P43119 whole entry): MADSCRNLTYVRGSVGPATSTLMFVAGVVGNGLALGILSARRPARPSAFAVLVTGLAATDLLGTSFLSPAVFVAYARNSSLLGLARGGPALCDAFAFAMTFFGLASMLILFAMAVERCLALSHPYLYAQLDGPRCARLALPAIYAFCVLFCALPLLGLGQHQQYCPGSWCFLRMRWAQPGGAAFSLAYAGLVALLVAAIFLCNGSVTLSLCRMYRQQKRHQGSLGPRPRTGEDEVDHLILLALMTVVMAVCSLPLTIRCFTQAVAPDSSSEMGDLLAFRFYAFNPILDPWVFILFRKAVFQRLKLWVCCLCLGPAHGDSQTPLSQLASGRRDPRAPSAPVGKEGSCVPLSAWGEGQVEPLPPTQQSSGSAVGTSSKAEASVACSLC

T/C %	SMILES
113%	CC(C)(C)n1nnnc1C(c1ccc(Cl)cc1)N1CCc2ccccc2C1 (stereo not shown) [drawing 118]
143%	CC(C)(C)n1nnnc1C(c1ccccc1)N1CCc2ccccc2C1 (stereo not shown) [drawing 104]
104%	Cc1ccc(S(=O)(=O)Cn2nnnc2C(c2ccc(O)cc2)N2CCc3ccccc3C2)cc1 (stereo not shown)
112%	Cc1ccc(C(c2nnnn2C(C)(C)C)N2CCc3ccccc3C2)cc1 (stereo not shown) [drawing 143]
90%	COc1ccc(C(c2nnnn2Cc2ccccc2)N2CCc3ccccc3C2)cc1OC (stereo not shown)

Same assay, conditions: cAMP relative to 100 pM iloprost alone, test compound 10 uM

T/C %	SMILES
106%	Cc1ccc(Cn2nnnc2C(c2ccc(F)cc2)N2CCc3ccccc3C2)cc1 (stereo not shown)
110%	COc1ccc(C(c2nnnn2Cc2ccccc2)N2CCc3ccccc3C2)cc1 (stereo not shown)
97%	COc1cc(C(c2nnnn2C2CCCCC2)N2CCc3ccccc3C2)ccc1O (stereo not shown)
92%	COc1ccc(OC)c(C(c2nnnn2C2CCCC2)N2CCc3ccccc3C2)c1 (stereo not shown)
122%	CCC(C)(C)n1nnnc1C(c1ccc(O)c(OC)c1)N1CCc2ccccc2C1 (stereo not shown)
91%	COc1ccc(OC)c(C(c2nnnn2Cc2ccc(C)cc2)N2CCc3ccccc3C2)c1 (stereo not shown)
104%	COc1ccc(Cn2nnnc2C(c2ccccc2)N2CCc3ccccc3C2)cc1 (stereo not shown)
117%	Cc1ccc(Cn2nnnc2C(c2ccccc2)N2CCc3ccccc3C2)cc1 (stereo not shown)
215%	CCC(C)(C)n1nnnc1C(c1ccccc1OC)N1CCc2ccccc2C1 (stereo not shown)
109%	Cc1ccc(Cn2nnnc2C(c2ccc(Cl)cc2)N2CCc3ccccc3C2)cc1 (stereo not shown)
91%	COc1cc(C(c2nnnn2Cc2ccc(F)cc2)N2CCc3ccccc3C2)ccc1O (stereo not shown)
155%	CCC(C)(C)n1nnnc1C(c1ccc(F)cc1)N1CCc2ccccc2C1 (stereo not shown)
112%	Cc1ccc(C(c2nnnn2Cc2ccccc2)N2CCc3ccccc3C2)cc1 (stereo not shown) [drawing 121]
113%	Oc1ccc(C(c2nnnn2Cc2ccc(F)cc2)N2CCc3ccccc3C2)cc1 (stereo not shown)
108%	Fc1ccc(C(c2nnnn2C2CCCC2)N2CCc3ccccc3C2)cc1 (stereo not shown)
102%	Cc1ccc(C(c2nnnn2Cc2ccccc2)N2CCc3ccccc3C2)cc1 (stereo not shown) [drawing 140]
96%	COCCn1nnnc1C(c1ccc(F)cc1)N1CCc2ccccc2C1 (stereo not shown)
103%	CCC(C)(C)n1nnnc1C(c1ccc(OC)c(OC)c1)N1CCc2ccccc2C1 (stereo not shown)
96%	COc1ccc(C(c2nnnn2Cc2ccc(F)cc2)N2CCc3ccccc3C2)cc1OC (stereo not shown)
82%	COc1ccc(OC)c(C(c2nnnn2C2CCCCC2)N2CCc3ccccc3C2)c1 (stereo not shown)
100%	CCC(C)(C)n1nnnc1C(c1cc(OC)ccc1O)N1CCc2ccccc2C1 (stereo not shown)

T/C %	SMILES
114%	COc1ccc(C(c2nnnn2CCc2ccccc2)N2CCc3ccccc3C2)cc1 (stereo not shown)
105%	Cc1ccc(C(c2nnnn2C2CCCC2)N2CCc3ccccc3C2)cc1 (stereo not shown)
107%	COCCn1nnnc1C(c1ccccc1OC)N1CCc2ccccc2C1 (stereo not shown)
105%	COc1ccc(Cn2nnnc2C(c2ccc(OC)cc2)N2CCc3ccccc3C2)cc1 (stereo not shown)
103%	Fc1ccc(C(c2nnnn2CCc2ccccc2)N2CCc3ccccc3C2)cc1 (stereo not shown)
93%	COc1ccc(C(c2nnnn2C2CCCC2)N2CCc3ccccc3C2)cc1OC (stereo not shown)
98%	COCCn1nnnc1C(c1ccc(OC)c(OC)c1)N1CCc2ccccc2C1 (stereo not shown)
104%	Fc1ccc(C(c2nnnn2C2CCCCC2)N2CCc3ccccc3C2)cc1 (stereo not shown)
94%	COc1cc(C(c2nnnn2Cc2ccccc2)N2CCc3ccccc3C2)ccc1O (stereo not shown)
111%	COc1ccc(C(c2nnnn2C2CCCCC2)N2CCc3ccccc3C2)cc1 (stereo not shown)
148%	CCC(C)(C)n1nnnc1C(c1ccc(Cl)cc1)N1CCc2ccccc2C1 (stereo not shown)
103%	COc1ccc(C(c2nnnn2C(C)(C)C)N2CCc3ccccc3C2)cc1OC (stereo not shown)
128%	c1ccc(CCn2nnnc2C(c2ccccc2)N2CCc3ccccc3C2)cc1 (stereo not shown) [drawing 106]
105%	Oc1ccc(C(c2nnnn2C2CCCC2)N2CCc3ccccc3C2)cc1 (stereo not shown)
97%	COCCn1nnnc1C(c1ccc(O)cc1OC)N1CCc2ccccc2C1 (stereo not shown)
110%	Clc1ccc(C(c2nnnn2C2CCCC2)N2CCc3ccccc3C2)cc1 (stereo not shown)
91%	COc1cc(C(c2nnnn2CCc2ccccc2)N2CCc3ccccc3C2)ccc1O (stereo not shown)
100%	Cc1ccc(C(c2nnnn2C2CCCCC2)N2CCc3ccccc3C2)cc1 (stereo not shown)
111%	c1ccc(CCn2nnnc2C(c2ccccc2)N2CCc3ccccc3C2)cc1 (stereo not shown) [drawing 142]
112%	c1ccc(C(c2nnnn2C2CCCCC2)N2CCc3ccccc3C2)cc1 (stereo not shown) [drawing 120]
112%	COc1ccc(C(c2nnnn2Cc2ccc(C)cc2)N2CCc3ccccc3C2)cc1 (stereo not shown)

T/C %	SMILES
87%	COc1ccc(C(c2nnnn2C2CCCCC2)N2CCc3ccccc3C2)cc1OC (stereo not shown)
112%	c1ccc(Cn2nnnc2C(c2ccccc2)N2CCc3ccccc3C2)cc1 (stereo not shown)
106%	COc1ccc(C(c2nnnn2CCc2ccccc2)N2CCc3ccccc3C2)cc1OC (stereo not shown)
113%	COc1ccc(C(c2nnnn2C2CCCCC2)N2CCc3ccccc3C2)c(OC)c1 (stereo not shown)
104%	Oc1ccc(C(c2nnnn2C2CCCCC2)N2CCc3ccccc3C2)cc1 (stereo not shown)
100%	COc1ccc(OC)c(C(c2nnnn2C(C)(C)C)N2CCc3ccccc3C2)c1 (stereo not shown)
103%	COc1ccc(C(c2nnnn2Cc2ccccc2)N2CCc3ccccc3C2)c(OC)c1 (stereo not shown)
98%	c1ccc(C(c2nnnn2C2CCCCC2)N2CCc3ccccc3C2)cc1 (stereo not shown) [drawing 138]
93%	Cc1ccc(S(=O)(=O)Cn2nnnc2C(c2ccc(F)cc2)N2CCc3ccccc3C2)cc1 (stereo not shown)
117%	Cc1ccc(C(c2nnnn2Cc2ccc(F)cc2)N2CCc3ccccc3C2)cc1 (stereo not shown)
78%	COc1ccc(OC)c(C(c2nnnn2CCc2ccccc2)N2CCc3ccccc3C2)c1 (stereo not shown)
90%	COc1ccc(OC)c(C(c2nnnn2Cc2ccccc2)N2CCc3ccccc3C2)c1 (stereo not shown)
108%	Cc1ccc(C(c2nnnn2CCc2ccccc2)N2CCc3ccccc3C2)cc1 (stereo not shown)
103%	Cc1ccc(C(c2nnnn2Cc2ccccc2)N2CCc3ccccc3C2)cc1 (stereo not shown) [drawing 151]
106%	COc1ccc(C(c2nnnn2CCc2ccccc2)N2CCc3ccccc3C2)c(OC)c1 (stereo not shown)
102%	Cc1ccc(S(=O)(=O)Cn2nnnc2C(c2ccc(C(F)(F)F)cc2)N2CCc3ccccc3C2)cc1 (stereo not shown)
103%	CN(C)c1ccc(C(c2nnnn2C2CCCC2)N2CCc3ccccc3C2)cc1 (stereo not shown)
90%	COCCn1nnnc1C(c1cc(OC)ccc1OC)N1CCc2ccccc2C1 (stereo not shown)
202%	CCC(C)(C)n1nnnc1C(c1ccccc1)N1CCc2ccccc2C1 (stereo not shown)
101%	COc1ccc(C(c2nnnn2CS(=O)(=O)c2ccc(C)cc2)N2CCc3ccccc3C2)cc1 (stereo not shown)
